Activity calls are given as the source filed them. No cut-off for these calls is given here.
What was measured:
[1] = tested on: MDA-MB-231; experiment: Antiproliferative activity against human MDA-MB-231 cells assessed as inhibition of cell proliferation incubated for 48 hrs by CCK-8 assay; format: functional, cell-based; settings: MDA-MB-231, 48 h
[2] = tested on: A549; experiment: Antiproliferative activity against human A549 cells assessed as inhibition of cell proliferation incubated for 48 hrs by CCK-8 assay; format: functional, cell-based; settings: A549, 48 h
[3] = biological target: T1, Aurora kinase A (Homo sapiens) (UniProt O14965); experiment: Covalent binding affinity to recombinant human Aurora A (1 to 403 residues) expressed in Escherichia coli assessed as covalent adduct formation at Cys290 residue at 100 uM incubated for 4 hrs by UPLC-MS/MS analysis
T1 sequence (whole entry): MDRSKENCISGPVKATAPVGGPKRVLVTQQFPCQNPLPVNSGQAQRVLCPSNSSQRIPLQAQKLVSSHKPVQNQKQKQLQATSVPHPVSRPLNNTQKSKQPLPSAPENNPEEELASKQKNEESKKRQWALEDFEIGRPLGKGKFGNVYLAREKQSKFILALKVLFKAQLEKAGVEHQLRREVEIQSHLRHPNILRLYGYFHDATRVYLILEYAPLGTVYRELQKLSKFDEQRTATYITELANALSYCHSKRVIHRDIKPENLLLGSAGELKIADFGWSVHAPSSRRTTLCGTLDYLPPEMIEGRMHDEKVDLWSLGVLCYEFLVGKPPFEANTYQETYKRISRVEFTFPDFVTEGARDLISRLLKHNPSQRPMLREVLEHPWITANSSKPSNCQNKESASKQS

[4] = biological target: Aurora kinase B (Homo sapiens) (UniProt Q96GD4); experiment: Inhibition of Aurora B in human MDA-MB-231 cells assessed as effect on Aurora B phosphorylation at 0.2 to 0.6 uM incubated for 1 hrs by Western blot analysis; format: cell-based; settings: dose 0.2-0.6 µM
[5] = biological target: Aurora kinase B (Homo sapiens) (UniProt Q96GD4); experiment: Binding affinity to Aurora B in human MDA-MB-231 cells assessed as thermal stability at 46 to 62 degreeC at 1 uM incubated for 1 hrs by […] analysis; format: cell-based
[6] = biological target: T2, Aurora kinase A (Homo sapiens, UniProt O14965); experiment: Inhibition of recombinant human Aurora A (1 to 403 residues) expressed in Escherichia coli using STK-substrate 2-biotin as substrate incubated for 15 mins in presence of 24 uM ATP by HTRF assay
T2 sequence (O14965 whole entry): T1 sequence (whole entry)

[7] = biological target: T2, Aurora kinase A; experiment: Inhibition of recombinant human Aurora A (1 to 403 residues) expressed in Escherichia coli using STK-substrate 2-biotin as substrate incubated for 40 mins in presence of 7.2uM ATP by HTRF assay
[8] = biological target: T2, Aurora kinase A; experiment: Inhibition of recombinant human Aurora A (1 to 403 residues) expressed in Escherichia coli using STK-substrate 2-biotin as substrate incubated for 60 mins in presence of 0.48 uM ATP by HTRF assay
[9] = biological target: T2, Aurora kinase A; experiment: Inhibition of recombinant human Aurora A (1 to 403 residues) expressed in Escherichia coli using STK-substrate 2-biotin as substrate incubated for 60 mins in presence of 2.4uM ATP by HTRF assay
[10] = biological target: T2, Aurora kinase A; experiment: Inhibition of recombinant human Aurora A (1 to 403 residues) expressed in Escherichia coli using STK-substrate 2-biotin as substrate incubated for 60 mins in presence of 7.2uM ATP by HTRF assay
[11] = biological target: T2, Aurora kinase A; experiment: Inhibition of recombinant human Aurora A (1 to 403 residues) expressed in Escherichia coli using STK-substrate 2-biotin as substrate incubated for 60 mins in presence of 24 uM ATP by HTRF assay
[12] = tested on: MDA-MB-231; experiment: Induction of apoptosis in human MDA-MB-231 cells assessed as necrotic cells at 2.5 uM incubated for 24 hrs by Annexin V-FITC staining based flow cytometry (Rvb= 1.67%); format: functional
[13] = tested on: MDA-MB-231; experiment: Induction of apoptosis in human MDA-MB-231 cells assessed as necrotic cells at 5 uM incubated for 24 hrs by Annexin V-FITC staining based flow cytometry (Rvb= 1.67%); format: functional
[14] = tested on: MDA-MB-231; experiment: Induction of apoptosis in human MDA-MB-231 cells assessed as late apoptotic cells at 2.5 uM incubated for 24 hrs by Annexin V-FITC staining based flow cytometry (Rvb= 6.90%); format: functional
[15] = tested on: MDA-MB-231; experiment: Induction of apoptosis in human MDA-MB-231 cells assessed as live cells at 5 uM incubated for 24 hrs by Annexin V-FITC staining based flow cytometry (Rvb= 88.1%); format: functional
[16] = tested on: MDA-MB-231; experiment: Inhibition of cell migration in human MDA-MB-231 cells at 1.25 uM incubated for 18 hrs by Scratch assay (Rvb= 37.2%); format: functional
[17] = Metabolic stability in Sprague-Dawley rat liver microsomes assessed as half life at 1.75 uM incubated upto 60 mins in presence of NADPH by LC-MS analysis; format: ADME, Microsome
[18] = Toxicity in BALB/c nude mouse xenografted with human MDA-MB-231 cells assessed as body weight change at 15 mg/kg,ip every 2days for 20 days; format: organism-based; settings: in vivo, 480 h, time 20 day
[19] = tested on: Mus musculus; experiment: In vivo inhibition of Aurora signalling pathway in human MDA-MB-231 cells xenografted in BALB/c nude mouse assessed as decrease in Aurora A phosphorylation at Thr288 residue in tumor at 15 mg/kg,ip every 2days for 20 days by Western blot analysis; format: functional, organism-based; settings: time 20.0 day
[20] = tested on: Mus musculus; experiment: In vivo inhibition of Aurora signalling pathway in human MDA-MB-231 cells xenografted in BALB/c nude mouse assessed as decrease in Aurora B phosphorylation at Thr232 residue in tumor at 15 mg/kg,ip every 2days for 20 days by Western blot analysis; format: functional, organism-based; settings: time 20.0 day
[21] = Toxicity in BALB/c nude mouse xenografted with human MDA-MB-231 cells assessed as parenchymal injury in liver at 15 mg/kg,ip every 2days for 20 days by Hematoxylin and Eosin staining based microscopy; format: organism-based; settings: in vivo, 480 h, time 20 day
[22] = Toxicity in BALB/c nude mouse xenografted with human MDA-MB-231 cells assessed as parenchymal injury in lung at 15 mg/kg,ip every 2days for 20 days by Hematoxylin and Eosin staining based microscopy; format: organism-based; settings: in vivo, 480 h, time 20 day
[23] = Toxicity in BALB/c nude mouse xenografted with human MDA-MB-231 cells assessed as parenchymal injury in kidney at 15 mg/kg,ip every 2days for 20 days by Hematoxylin and Eosin staining based microscopy; format: organism-based; settings: in vivo, 480 h, time 20 day
[24] = Toxicity in BALB/c nude mouse xenografted with human MDA-MB-231 cells assessed as inflammatory cell infiltration in heart at 15 mg/kg,ip every 2days for 20 days by Hematoxylin and Eosin staining based microscopy; format: organism-based; settings: in vivo, 480 h, time 20 day
[25] = Toxicity in BALB/c nude mouse xenografted with human MDA-MB-231 cells assessed as inflammatory cell infiltration in spleen at 15 mg/kg,ip every 2days for 20 days by Hematoxylin and Eosin staining based microscopy; format: organism-based; settings: in vivo, 480 h, time 20 day
[26] = Toxicity in BALB/c nude mouse xenografted with human MDA-MB-231 cells assessed as inflammatory cell infiltration in lung at 15 mg/kg,ip every 2days for 20 days by Hematoxylin and Eosin staining based microscopy; format: organism-based; settings: in vivo, 480 h, time 20 day
[27] = Toxicity in BALB/c nude mouse xenografted with human MDA-MB-231 cells assessed as inflammatory cell infiltration in kidney at 15 mg/kg,ip every 2days for 20 days by Hematoxylin and Eosin staining based microscopy; format: organism-based; settings: in vivo, 480 h, time 20 day

Chain of Aurora kinase B (Homo sapiens) (Q96GD4 whole entry, the tested form may be a part): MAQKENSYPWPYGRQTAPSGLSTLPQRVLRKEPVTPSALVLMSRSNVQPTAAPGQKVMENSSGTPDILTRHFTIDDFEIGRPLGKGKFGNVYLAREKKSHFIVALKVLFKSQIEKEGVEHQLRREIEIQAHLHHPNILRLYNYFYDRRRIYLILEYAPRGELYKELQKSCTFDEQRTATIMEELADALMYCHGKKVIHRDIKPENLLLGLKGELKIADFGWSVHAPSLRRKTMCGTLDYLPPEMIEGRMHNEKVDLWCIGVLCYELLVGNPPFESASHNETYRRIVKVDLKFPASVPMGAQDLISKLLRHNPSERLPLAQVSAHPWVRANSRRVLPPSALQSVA

## C=CC(=O)Nc1ccc(-c2nc(Nc3cc(C)[nH]n3)c3ccc(N4CCN(C)CC4)cc3n2)cc1
[1]
  IC50: 1540 nM
[2]
  IC50: 3080 nM
[3]
  Activity: Active
[4]
  inhibition: inactive
[5]
  Activity: inactive
[6]
  IC50: 5.24 nM
[7]
  IC50: 5.19 nM
[8]
  IC50: 3.41 nM
[9]
  IC50: 3.91 nM
[10]
  IC50: 8.13 nM
[11]
  IC50: 23.3 nM
[12]
  Activity: 1.14%
[13]
  Activity: 0.27%
[14]
  Activity: 21%
[15]
  Activity: 8.59%
[16]
  inhibition at 1.25 µM: 3.6%
[17]
  half-life at 1.75 µM: 24.3 min
[18]
  Activity: Non-Toxic
[19]
  inhibition: Active
[20]
  inhibition: inactive
[21]
  Activity: Non-Toxic
[22]
  Activity: Non-Toxic
[23]
  Activity: Non-Toxic
[24]
  Activity: Non-Toxic
[25]
  Activity: Non-Toxic
[26]
  Activity: Non-Toxic
[27]
  Activity: Non-Toxic

From ChEMBL document CHEMBL5370554, “Discovery of a first-in-class Aurora A covalent inhibitor for the treatment of triple negative breast cancer” (Eur J Med Chem, 2023)
